# In US12662490B2, “Heterocyclic compounds” (Hoffmann-La Roche Inc., priority 2019, dated 2026):
# pIC50: −log10 of the molar value.
# Biological target: T1, MAGL (Homo sapiens, UniProt Q99685)
# T1 sequence (Q99685 1-303): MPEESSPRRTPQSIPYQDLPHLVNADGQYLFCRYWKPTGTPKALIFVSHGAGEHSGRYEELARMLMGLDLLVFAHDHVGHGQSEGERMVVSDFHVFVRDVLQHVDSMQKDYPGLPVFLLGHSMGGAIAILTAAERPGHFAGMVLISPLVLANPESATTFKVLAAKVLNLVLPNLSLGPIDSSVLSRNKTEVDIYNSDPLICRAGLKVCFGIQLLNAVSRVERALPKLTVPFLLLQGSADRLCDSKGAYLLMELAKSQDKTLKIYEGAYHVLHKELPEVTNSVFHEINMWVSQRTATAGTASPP
# Assay: 2-AG assay (MAGL inhibitory activity; hydrolysis of 2-arachidonoylglycerol to arachidonic acid followed by mass spectrometry)
# Type: biochemical
# Settings: 15 min preincubation at RT, 8 μM 2-arachidonoylglycerol, 30 min at RT, RapidFire MS readout
# How it was run: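 Compounds (final 12.5 μM to […], 3-fold steps) preincubated 15 min at RT with MAGL ([…]) in 50 mM TRIS, 1 mM EDTA, Tween buffer. Reaction started with 8 μM 2-arachidonoylglycerol, run 30 min at RT, quenched with ACN containing d8-arachidonic acid. Arachidonic acid quantified by RapidFire SPE-triple quadrupole MS (negative ESI), activity from arachidonic acid/d8 ratio.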
row,pIC50,Structure (SMILES)
1,7.25,"Cc1cc(-c2cccc(C(=O)N3CCN4C[C@@H](c5ccc(F)c(Cl)c5)OC[C@@H]4C3)c2Cl)cc(=O)[nH]1 [Example 123, 4-[3-[(3R,9aS)-3-(3-chloro-4-fluoro-phenyl)-3,4,6,7,9,9a-hexahydro-1H-pyrazino[2,1-c][1,4]oxazine-8-carbonyl]-2-chloro-phenyl]-6-methyl-1H-pyridin-2-one]"
2,6.82,"COc1cccc(C(=O)N2CCN3C[C@@](O)(c4ccc(C(F)(F)F)[nH]c4=O)OC[C@@H]3C2)c1Cl [Example 136, 3-[(3R,9aS)-8-(2-chloro-3-methoxy-benzoyl)-3-hydroxy-1,4,6,7,9,9a-hexahydropyrazino[2,1-c][1,4]oxazin-3-yl]-6-(trifluoromethyl)-1H-pyridin-2-one]"
3,7.74,"COc1cccc(C(=O)N2CCN3C[C@@H](c4ccc(F)c(Cl)c4)OC[C@@H]3C2)c1Cl [Example 1, [(3R,9aS)-3-(3-chloro-4-fluoro-phenyl)-3,4,6,7,9,9a-hexahydro-1H-pyrazino[2,1-c][1,4]oxazin-8-yl]-(2-chloro-3-methoxy-phenyl)methanone]"
4,5.69,"COc1cccc(C(=O)N2CCN3C[C@@H](c4ccc(C(F)(F)F)nn4)OC[C@@H]3C2)c1Cl [Example 89, (2-chloro-3-methoxy-phenyl)-[(3S,9aS)-3-[6-(trifluoromethyl)pyridazin-3-yl]-3,4,6,7,9,9a-hexahydro-1H-pyrazino[2,1-c][1,4]oxazin-8-yl]methanone]"
5,7.02,"O=C1CN(c2cccc(C(=O)N3CCN4C[C@@H](c5ccc(F)c(Cl)c5)OC[C@@H]4C3)c2Cl)CCN1 [Example 126, 4-[3-[(3R,9aS)-3-(3-chloro-4-fluoro-phenyl)-3,4,6,7,9,9a-hexahydro-1H-pyrazino[2,1-c][1,4]oxazine-8-carbonyl]-2-chloro-phenyl]piperazin-2-one]"
6,7.90,"COc1cccc(C(=O)N2CCN3C[C@@H](c4cc(Br)c(Cl)cn4)OC[C@@H]3C2)c1Cl [Example 107, (2-chloro-3-methoxy-phenyl)-[(3S,9aS)-3-[5-chloro-4-bromo-2-pyridyl]-3,4,6,7,9,9a-hexahydro-1H-pyrazino[2,1-c][1,4]oxazin-8-yl]methanone]"
7,5.99,"O=C(c1cccc(-c2c[nH]ncc2=O)c1Cl)N1CCN2C[C@@H](c3ccc(F)c(Cl)c3)OC[C@@H]2C1 [Example 158, 5-[3-[(3R,9aS)-3-(3-chloro-4-fluoro-phenyl)-3,4,6,7,9,9a-hexahydro-1H-pyrazino[2,1-c][1,4]oxazine-8-carbonyl]-2-chloro-phenyl]-1H-pyridazin-4-one]"
8,6.26,"COc1cccc(C(=O)N2CCN3C[C@@H](c4cncc(Cl)c4)OC[C@@H]3C2)c1Cl (racemic) [Example 59, (2-chloro-3-methoxy-phenyl)-[rac-(3R,9aS)-3-(5-chloro-3-pyridyl)-3,4,6,7,9,9a-hexahydro-1H-pyrazino[2,1-c][1,4]oxazin-8-yl]methanone]"
9,5.34,"COc1cc(OC)c(Cl)c(C(=O)N2CCN3C[C@H](c4ccc(F)c(Cl)c4)OC[C@@H]3C2)c1 [Example 17, [(3S,9aS)-3-(3-chloro-4-fluoro-phenyl)-3,4,6,7,9,9a-hexahydro-1H-pyrazino[2,1-c][1,4]oxazin-8-yl]-(2-chloro-3,5-dimethoxy-phenyl)methanone]"
10,7.30,"Cc1c(-c2cccc(C(=O)N3CCN4C[C@@H](c5ccc(F)c(Cl)c5)OC[C@@H]4C3)c2Cl)cnn1C [Example 39, [(3R,9aS)-3-(3-chloro-4-fluoro-phenyl)-3,4,6,7,9,9a-hexahydro-1H-pyrazino[2,1-c][1,4]oxazin-8-yl]-[2-chloro-3-(1,5-dimethylpyrazol-4-yl)phenyl]methanone]"
11,6.92,"O=C(c1cccc(N2CCOCC2)c1Cl)N1CCN2C[C@@H](c3ccc(F)c(Cl)c3)OC[C@@H]2C1 [Example 43, [(3R,9aS)-3-(3-chloro-4-fluoro-phenyl)-3,4,6,7,9,9a-hexahydro-1H-pyrazino[2,1-c][1,4]oxazin-8-yl]-(2-chloro-3-morpholino-phenyl)methanone]"
12,6.46,"COc1cccc(C(=O)N2CCN3C[C@@](O)(c4cc(-c5ccccc5)no4)OC[C@@H]3C2)c1Cl [Example 143, [(3S,9aS)-3-hydroxy-3-(3-phenylisoxazol-5-yl)-1,4,6,7,9,9a-hexahydropyrazino[2,1-c][1,4]oxazin-8-yl]-(2-chloro-3-methoxy-phenyl)methanone]"
13,7.33,"O=C(c1cccc(-c2c[nH]c(=O)o2)c1Cl)N1CCN2C[C@@H](c3ccc(F)c(Cl)c3)OC[C@@H]2C1 [Example 121, 5-[3-[(3R,9aS)-3-(3-chloro-4-fluoro-phenyl)-3,4,6,7,9,9a-hexahydro-1H-pyrazino[2,1-c][1,4]oxazine-8-carbonyl]-2-chloro-phenyl]-3H-oxazol-2-one]"
14,6.88,"O=C(c1cccc(OC(F)F)c1Cl)N1CCN2C[C@@H](c3ccc(F)c(Cl)c3)OC[C@@H]2C1 [Example 25, [(3R,9aS)-3-(3-chloro-4-fluoro-phenyl)-3,4,6,7,9,9a-hexahydro-1H-pyrazino[2,1-c][1,4]oxazin-8-yl]-[2-chloro-3-(difluoromethoxy)phenyl]methanone]"
15,6.15,"COc1cccc(C(=O)N2CCN3C[C@@](O)(c4ccc(C(F)(F)F)nc4C)OC[C@@H]3C2)c1Cl [Example 153, [(3R,9aS)-3-hydroxy-3-[2-methyl-6-(trifluoromethyl)-3-pyridyl]-1,4,6,7,9,9a-hexahydropyrazino[2,1-c][1,4]oxazin-8-yl]-(2-chloro-3-methoxy-phenyl)methanone]"
16,8.12,"O=C(c1cccc(-c2c[nH]nc2F)c1Cl)N1CCN2C[C@@H](c3ccc(F)c(F)c3)OC[C@@H]2C1 [Example 95, [(3R,9aS)-3-(3,4-difluorophenyl)-3,4,6,7,9,9a-hexahydro-1H-pyrazino[2,1-c][1,4]oxazin-8-yl]-[2-chloro-3-(3-fluoro-1H-pyrazol-4-yl)phenyl]methanone]"
17,6.24,"N#Cc1cc(-c2cc(F)cc(C(=O)N3CCN4C[C@H](c5c[nH]c(C(F)(F)F)cc5=O)OC[C@@H]4C3)c2Cl)c[nH]1 [Example 151, 4-[3-[(3S,9aS)-3-[4-oxo-6-(trifluoromethyl)-1H-pyridin-3-yl]-3,4,6,7,9,9a-hexahydro-1H-pyrazino[2,1-c][1,4]oxazine-8-carbonyl]-2-chloro-5-fluoro-phenyl]-1H-pyrrole-2-carbonitrile]"
18,7.05,"COc1cccc(C(=O)N2CCN3C[C@@H](c4cc(C(F)F)c(Cl)cn4)OC[C@@H]3C2)c1Cl [Example 104, (2-chloro-3-methoxy-phenyl)-[(3S,9aS)-3-[5-chloro-4-(difluoromethyl)-2-pyridyl]-3,4,6,7,9,9a-hexahydro-1H-pyrazino[2,1-c][1,4]oxazin-8-yl]methanone]"
19,7.98,"O=C(c1cccc(N2CC(O)C2)c1Cl)N1CCN2C[C@@H](c3ccc(F)c(Cl)c3)OC[C@@H]2C1 [Example 108, [(3R,9aS)-3-(3-chloro-4-fluoro-phenyl)-3,4,6,7,9,9a-hexahydro-1H-pyrazino[2,1-c][1,4]oxazin-8-yl]-[2-chloro-3-(3-hydroxyazetidin-1-yl)phenyl]methanone]"
20,5.30,"COc1cccc(C(=O)N2CCN3C[C@@H](c4sc(C)nc4C)OC[C@@H]3C2)c1Cl (single isomer, unassigned) [Example 51]"
21,6.69,"O=C(c1cccc(-c2ccnnc2)c1Cl)N1CCN2C[C@@H](c3ccc(F)c(Cl)c3)OC[C@@H]2C1 [Example 29, [(3R,9aS)-3-(3-chloro-4-fluoro-phenyl)-3,4,6,7,9,9a-hexahydro-1H-pyrazino[2,1-c][1,4]oxazin-8-yl]-(2-chloro-3-pyridazin-4-yl-phenyl)methanone]"
22,8.05,"O=C(c1cccc(-c2cc[nH]c(=O)c2)c1Cl)N1CCN2C[C@@H](c3ccc(F)c(Cl)c3)OC[C@@H]2C1 [Example 105, 4-[3-[(3R,9aS)-3-(3-chloro-4-fluoro-phenyl)-3,4,6,7,9,9a-hexahydro-1H-pyrazino[2,1-c][1,4]oxazine-8-carbonyl]-2-chloro-phenyl]-1H-pyridin-2-one]"
23,6.62,"O=C(c1cccc(-c2cocn2)c1Cl)N1CCN2C[C@@](O)(c3ccc(C(F)(F)F)cn3)OC[C@@H]2C1 [Example 86, [(3S,9aS)-3-hydroxy-3-[5-(trifluoromethyl)-2-pyridyl]-1,4,6,7,9,9a-hexahydropyrazino[2,1-c][1,4]oxazin-8-yl]-(2-chloro-3-oxazol-4-yl-phenyl)methanone]"
24,7.81,"O=C(c1cccc(-c2cnco2)c1Cl)N1CCN2C[C@@](O)(c3ccc(F)c(Cl)c3)OC[C@@H]2C1 [Example 76, [(3R,9aS)-3-(3-chloro-4-fluoro-phenyl)-3-hydroxy-1,4,6,7,9,9a-hexahydropyrazino[2,1-c][1,4]oxazin-8-yl]-(2-chloro-3-oxazol-5-yl-phenyl)methanone]"
25,6.88,"O=C(c1cnc2ccccc2c1Cl)N1CCN2C[C@@H](c3ccc(F)c(Cl)c3)OC[C@@H]2C1 [Example 16, [(3R,9aS)-3-(3-chloro-4-fluoro-phenyl)-3,4,6,7,9,9a-hexahydro-1H-pyrazino[2,1-c][1,4]oxazin-8-yl]-(4-chloro-3-quinolyl)methanone]"
26,6.37,"COc1cccc(C(=O)N2CCN3C[C@@H](c4ccc(Cl)c(C(F)(F)F)n4)OC[C@@H]3C2)c1Cl [Example 148, [(3S,9aS)-3-[5-chloro-6-(trifluoromethyl)-2-pyridyl]-3,4,6,7,9,9a-hexahydro-1H-pyrazino[2,1-c][1,4]oxazin-8-yl]-(2-chloro-3-methoxy-phenyl)methanone]"
